Test results: patent publication US20130267551A1, “SUBSTITUTED HYDROGENATED THIENO-PYRROLO[3,2-C]PYRIDINE, LIGANDS, A PHARMACEUTICAL COMPOSITION AND A METHOD FOR USING THE ABOVE” (ALLA CHEM, LLC, priority 2010, published 2013)
Counter-ions that a name gives are not always drawn.

Key:
[1] = test system: Therapeutic targets (Adrenergic, Dopaminergic, Histaminergic, Serotoninergic); assay: Profiles of pharmacological activity in competitive radioligand binding (whole panel); conditions: 1 μM, grades not defined
Experimental: (§1) Profiles of pharmacological activity of thieno-pyrrolo[3,2-c]pyridines of the general formula 1. Biological activity test of compounds of the general formula 1 was carried out in the setting of competitive radioligand binding [I. Okun, S. Tkachenko, A. Khvat, et al., Current Alzheimer Research, 7(2), 97-112 (2010)], using a wide range of therapeutic targets including G-protein coupled receptors (GPCR), ion channels and neuromediator transporters. The tested activity was determined by quantitative measurement of radio-labelled ligand displacement by tested compounds of the general formula 1 at their concentration of 1 μM.

Histaminergic H3 = Histaminergic H3 (Homo sapiens, UniProt Q9Y5N1); assay: competitive radioligand binding, Histaminergic H3; conditions: compound concentration of 1 μM; in % (unit assumed)
Experimental: as §1

Dopaminergic D4.2 = molecular target: T1, Dopaminergic D4.2 (Homo sapiens, UniProt P21917, DEL265-296); assay: competitive radioligand binding, Dopaminergic D4.2; conditions: compound concentration of 1 μM
T1 sequence (P21917 with tags, fused parts or gaps DEL265-296): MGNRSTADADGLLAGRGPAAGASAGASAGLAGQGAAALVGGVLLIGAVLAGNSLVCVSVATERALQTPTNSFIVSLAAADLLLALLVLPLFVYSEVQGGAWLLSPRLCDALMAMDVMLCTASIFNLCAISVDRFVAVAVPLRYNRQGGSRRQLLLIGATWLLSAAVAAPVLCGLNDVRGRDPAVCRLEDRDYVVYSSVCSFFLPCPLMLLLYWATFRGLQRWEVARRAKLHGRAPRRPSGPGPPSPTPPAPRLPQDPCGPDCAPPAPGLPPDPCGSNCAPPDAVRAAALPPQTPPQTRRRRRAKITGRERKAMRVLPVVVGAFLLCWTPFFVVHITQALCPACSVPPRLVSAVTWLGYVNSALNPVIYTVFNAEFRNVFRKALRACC
Experimental: as §1

Dopaminergic D2L = Dopaminergic D2L (Homo sapiens, UniProt P14416); assay: competitive radioligand binding, Dopaminergic D2L; conditions: compound concentration of 1 μM
Experimental: as §1

Serotoninergic 5-HT6 = Serotoninergic 5-HT6 (Homo sapiens, UniProt P50406); assay: competitive radioligand binding, Serotoninergic 5-HT6; conditions: compound concentration of 1 μM
Experimental: as §1

Serotoninergic 5-HT1A = molecular target: T2, Serotoninergic 5-HT1A (Homo sapiens, UniProt P08908); assay: competitive radioligand binding, Serotoninergic 5-HT1A; conditions: compound concentration of 1 μM
T2 sequence (P08908 1-422): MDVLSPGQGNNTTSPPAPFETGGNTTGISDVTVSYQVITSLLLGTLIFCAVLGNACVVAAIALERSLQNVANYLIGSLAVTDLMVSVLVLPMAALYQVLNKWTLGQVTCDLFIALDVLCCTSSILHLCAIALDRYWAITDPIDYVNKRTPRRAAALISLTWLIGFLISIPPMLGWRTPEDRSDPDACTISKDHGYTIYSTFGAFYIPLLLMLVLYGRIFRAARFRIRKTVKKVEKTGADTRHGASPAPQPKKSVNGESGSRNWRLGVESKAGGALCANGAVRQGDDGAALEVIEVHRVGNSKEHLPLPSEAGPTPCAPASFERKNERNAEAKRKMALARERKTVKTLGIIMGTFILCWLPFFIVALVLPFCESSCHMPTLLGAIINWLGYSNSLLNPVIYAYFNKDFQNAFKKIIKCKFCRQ
Experimental: as §1

Dopaminergic D1 = Dopaminergic D1 (Homo sapiens, UniProt P21728); assay: competitive radioligand binding, Dopaminergic D1; conditions: compound concentration of 1 μM
Experimental: as §1

Adrenergic α1A = assay: competitive radioligand binding, Adrenergic α1A; conditions: compound concentration of 1 μM
Experimental: as §1

Adrenergic α1B = assay: competitive radioligand binding, Adrenergic α1B; conditions: compound concentration of 1 μM
Experimental: as §1

Histaminergic H2 = Histaminergic H2 (Homo sapiens, UniProt P25021); assay: competitive radioligand binding, Histaminergic H2; conditions: compound concentration of 1 μM
Experimental: as §1

Serotoninergic 5-HT1B = assay: competitive radioligand binding, Serotoninergic 5-HT1B; conditions: compound concentration of 1 μM
Experimental: as §1

Serotoninergic 5-HT2C = molecular target: T3, Serotoninergic 5-HT2C (Homo sapiens, UniProt P28335); assay: competitive radioligand binding, Serotoninergic 5-HT2C; conditions: compound concentration of 1 μM
T3 sequence (P28335 33-458): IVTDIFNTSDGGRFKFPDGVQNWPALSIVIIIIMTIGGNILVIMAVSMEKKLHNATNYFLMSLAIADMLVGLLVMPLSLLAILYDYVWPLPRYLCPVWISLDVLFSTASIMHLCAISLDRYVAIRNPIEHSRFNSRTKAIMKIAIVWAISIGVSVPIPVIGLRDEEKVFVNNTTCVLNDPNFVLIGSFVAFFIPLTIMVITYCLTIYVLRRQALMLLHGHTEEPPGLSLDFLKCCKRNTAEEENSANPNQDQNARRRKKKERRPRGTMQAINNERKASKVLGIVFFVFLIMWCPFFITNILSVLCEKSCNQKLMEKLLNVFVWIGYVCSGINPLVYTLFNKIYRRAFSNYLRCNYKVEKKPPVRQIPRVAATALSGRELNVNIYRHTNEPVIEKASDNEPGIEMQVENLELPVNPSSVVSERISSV
Experimental: as §1

Adrenergic α2A = molecular target: T4, Adrenergic α2A (Homo sapiens, UniProt P08913); assay: competitive radioligand binding, Adrenergic α2A; conditions: compound concentration of 1 μM
T4 sequence (P08913 1-465): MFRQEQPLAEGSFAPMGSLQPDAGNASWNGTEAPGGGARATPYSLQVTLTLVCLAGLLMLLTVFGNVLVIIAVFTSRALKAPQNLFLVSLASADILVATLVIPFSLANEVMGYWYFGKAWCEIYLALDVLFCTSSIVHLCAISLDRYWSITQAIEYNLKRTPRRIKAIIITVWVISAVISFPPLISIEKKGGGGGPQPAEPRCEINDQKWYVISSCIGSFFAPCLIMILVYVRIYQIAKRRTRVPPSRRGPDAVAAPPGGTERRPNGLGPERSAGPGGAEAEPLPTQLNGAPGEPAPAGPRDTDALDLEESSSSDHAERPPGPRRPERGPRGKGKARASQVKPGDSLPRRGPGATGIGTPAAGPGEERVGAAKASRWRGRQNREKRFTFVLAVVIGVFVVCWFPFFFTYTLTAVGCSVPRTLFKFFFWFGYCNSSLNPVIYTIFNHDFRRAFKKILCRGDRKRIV
Experimental: as §1

Serotoninergic 5-HT2B = Serotoninergic 5-HT2B (Homo sapiens, UniProt P41595); assay: competitive radioligand binding, Serotoninergic 5-HT2B; conditions: compound concentration of 1 μM
Experimental: as §1

Adrenergic α1D = molecular target: T5, Adrenergic α1D (Homo sapiens, UniProt P25100); assay: competitive radioligand binding, Adrenergic α1D; conditions: compound concentration of 1 μM
T5 sequence (P25100 1-572): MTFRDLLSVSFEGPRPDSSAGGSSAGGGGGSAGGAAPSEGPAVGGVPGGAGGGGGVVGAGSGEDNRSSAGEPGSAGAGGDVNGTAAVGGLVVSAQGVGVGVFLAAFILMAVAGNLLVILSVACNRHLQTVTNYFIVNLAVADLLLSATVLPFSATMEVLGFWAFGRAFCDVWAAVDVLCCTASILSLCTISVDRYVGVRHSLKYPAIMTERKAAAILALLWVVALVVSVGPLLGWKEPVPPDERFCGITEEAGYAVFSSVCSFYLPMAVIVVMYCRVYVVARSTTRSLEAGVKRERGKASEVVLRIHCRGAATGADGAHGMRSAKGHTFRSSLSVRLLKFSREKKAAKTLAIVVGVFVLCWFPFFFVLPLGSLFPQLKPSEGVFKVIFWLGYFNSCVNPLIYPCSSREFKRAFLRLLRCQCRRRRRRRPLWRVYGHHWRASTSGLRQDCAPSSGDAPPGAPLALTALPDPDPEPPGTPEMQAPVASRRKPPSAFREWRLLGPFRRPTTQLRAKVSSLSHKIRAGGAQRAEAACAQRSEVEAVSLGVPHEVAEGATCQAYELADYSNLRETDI
Experimental: as §1

Serotoninergic 5-HT7 = Serotoninergic 5-HT7 (Homo sapiens, UniProt P34969); assay: competitive radioligand binding, Serotoninergic 5-HT7; conditions: compound concentration of 1 μM
Experimental: as §1

Serotoninergic 5-HT2A = Serotoninergic 5-HT2A (Homo sapiens, UniProt P28223); assay: competitive radioligand binding, Serotoninergic 5-HT2A; conditions: compound concentration of 1 μM
Experimental: as §1

Dopaminergic D3 = Dopaminergic D3 (Homo sapiens, UniProt P35462); assay: competitive radioligand binding, Dopaminergic D3; conditions: compound concentration of 1 μM
Experimental: as §1

Histaminergic H1 = Histaminergic H1 (Homo sapiens, UniProt P35367); assay: competitive radioligand binding, Histaminergic H1; conditions: compound concentration of 1 μM
Experimental: as §1

Dopaminergic D2S = Dopaminergic D2S (Homo sapiens, UniProt P14416); assay: competitive radioligand binding, Dopaminergic D2S; conditions: compound concentration of 1 μM
Experimental: as §1

Mice of SHK line = assay: Prepulse inhibition of startle response in mice (Apomorphine); conditions: 1 mg/kg, intraperitoneally 60 minutes before the test

Chain of Dopaminergic D2S (P14416 1-414 isoform P14416-2): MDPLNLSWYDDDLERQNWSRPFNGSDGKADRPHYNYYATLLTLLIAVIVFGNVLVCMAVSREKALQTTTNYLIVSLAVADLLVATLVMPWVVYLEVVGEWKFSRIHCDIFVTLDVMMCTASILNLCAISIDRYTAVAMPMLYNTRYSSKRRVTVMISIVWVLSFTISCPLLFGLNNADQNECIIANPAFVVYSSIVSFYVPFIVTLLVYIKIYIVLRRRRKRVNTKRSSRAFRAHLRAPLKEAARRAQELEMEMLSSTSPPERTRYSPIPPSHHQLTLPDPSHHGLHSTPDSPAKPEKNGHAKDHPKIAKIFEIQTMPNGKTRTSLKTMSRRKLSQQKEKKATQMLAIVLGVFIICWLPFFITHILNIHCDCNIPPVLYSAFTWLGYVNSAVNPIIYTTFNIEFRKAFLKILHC
Chain of Serotoninergic 5-HT2B (P41595 whole entry): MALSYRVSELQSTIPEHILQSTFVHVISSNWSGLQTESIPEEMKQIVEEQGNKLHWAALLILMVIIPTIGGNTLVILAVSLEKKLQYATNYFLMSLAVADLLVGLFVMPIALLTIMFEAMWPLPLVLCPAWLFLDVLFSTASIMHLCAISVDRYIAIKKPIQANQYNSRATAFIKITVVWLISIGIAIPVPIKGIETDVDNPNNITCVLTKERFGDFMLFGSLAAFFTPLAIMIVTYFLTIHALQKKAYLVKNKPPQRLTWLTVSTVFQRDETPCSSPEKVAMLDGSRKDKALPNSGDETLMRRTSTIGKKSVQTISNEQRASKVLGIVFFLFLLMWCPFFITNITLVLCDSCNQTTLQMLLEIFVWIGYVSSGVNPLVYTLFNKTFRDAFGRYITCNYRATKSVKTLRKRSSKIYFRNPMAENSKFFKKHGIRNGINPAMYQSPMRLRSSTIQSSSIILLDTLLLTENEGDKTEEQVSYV
Chain of Serotoninergic 5-HT6 (P50406 whole entry): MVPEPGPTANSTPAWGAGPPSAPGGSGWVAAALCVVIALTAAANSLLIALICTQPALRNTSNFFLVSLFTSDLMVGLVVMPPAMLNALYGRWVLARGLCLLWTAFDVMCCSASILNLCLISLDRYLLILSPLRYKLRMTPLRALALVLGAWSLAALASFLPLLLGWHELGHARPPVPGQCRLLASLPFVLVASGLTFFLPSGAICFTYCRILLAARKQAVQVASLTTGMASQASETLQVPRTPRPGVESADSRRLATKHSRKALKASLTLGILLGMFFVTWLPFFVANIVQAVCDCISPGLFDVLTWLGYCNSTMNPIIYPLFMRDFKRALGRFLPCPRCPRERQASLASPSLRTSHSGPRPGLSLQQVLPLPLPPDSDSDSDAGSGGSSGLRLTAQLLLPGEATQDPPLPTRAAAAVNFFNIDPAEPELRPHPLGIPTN
Chain of Dopaminergic D2L (P14416 whole entry): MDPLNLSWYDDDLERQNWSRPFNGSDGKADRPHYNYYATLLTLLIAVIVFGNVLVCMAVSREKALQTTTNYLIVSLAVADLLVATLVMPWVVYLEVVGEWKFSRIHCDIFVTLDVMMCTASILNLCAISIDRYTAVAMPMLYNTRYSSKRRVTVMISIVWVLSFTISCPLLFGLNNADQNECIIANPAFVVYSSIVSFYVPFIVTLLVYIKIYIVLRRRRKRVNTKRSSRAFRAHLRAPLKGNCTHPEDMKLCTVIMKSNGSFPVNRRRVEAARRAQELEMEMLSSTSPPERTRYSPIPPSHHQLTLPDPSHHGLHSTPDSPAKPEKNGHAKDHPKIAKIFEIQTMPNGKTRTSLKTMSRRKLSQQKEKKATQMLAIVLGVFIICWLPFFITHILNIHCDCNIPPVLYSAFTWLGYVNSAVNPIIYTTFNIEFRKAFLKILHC
Chain of Dopaminergic D3 (P35462 whole entry): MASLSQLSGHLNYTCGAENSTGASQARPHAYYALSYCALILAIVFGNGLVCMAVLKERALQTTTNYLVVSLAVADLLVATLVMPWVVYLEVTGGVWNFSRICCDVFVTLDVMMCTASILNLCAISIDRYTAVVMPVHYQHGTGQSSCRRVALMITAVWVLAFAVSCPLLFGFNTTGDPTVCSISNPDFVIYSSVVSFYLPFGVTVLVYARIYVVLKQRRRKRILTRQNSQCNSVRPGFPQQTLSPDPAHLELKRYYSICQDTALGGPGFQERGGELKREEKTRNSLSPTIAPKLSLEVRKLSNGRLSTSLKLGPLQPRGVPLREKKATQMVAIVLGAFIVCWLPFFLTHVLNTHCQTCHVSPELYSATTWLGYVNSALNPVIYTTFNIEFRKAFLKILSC
Chain of Dopaminergic D1 (P21728 whole entry): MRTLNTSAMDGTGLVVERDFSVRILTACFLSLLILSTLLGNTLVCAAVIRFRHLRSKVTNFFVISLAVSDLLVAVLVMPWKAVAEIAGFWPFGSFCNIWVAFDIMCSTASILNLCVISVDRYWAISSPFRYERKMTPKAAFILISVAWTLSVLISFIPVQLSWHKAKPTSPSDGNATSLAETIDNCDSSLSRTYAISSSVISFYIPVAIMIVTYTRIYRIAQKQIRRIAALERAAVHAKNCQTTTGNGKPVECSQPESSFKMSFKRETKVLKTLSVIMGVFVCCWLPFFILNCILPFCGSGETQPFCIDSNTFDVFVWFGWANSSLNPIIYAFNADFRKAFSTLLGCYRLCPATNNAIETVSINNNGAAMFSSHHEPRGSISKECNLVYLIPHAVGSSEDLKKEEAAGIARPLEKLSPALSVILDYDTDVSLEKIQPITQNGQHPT
Chain of Histaminergic H1 (P35367 whole entry): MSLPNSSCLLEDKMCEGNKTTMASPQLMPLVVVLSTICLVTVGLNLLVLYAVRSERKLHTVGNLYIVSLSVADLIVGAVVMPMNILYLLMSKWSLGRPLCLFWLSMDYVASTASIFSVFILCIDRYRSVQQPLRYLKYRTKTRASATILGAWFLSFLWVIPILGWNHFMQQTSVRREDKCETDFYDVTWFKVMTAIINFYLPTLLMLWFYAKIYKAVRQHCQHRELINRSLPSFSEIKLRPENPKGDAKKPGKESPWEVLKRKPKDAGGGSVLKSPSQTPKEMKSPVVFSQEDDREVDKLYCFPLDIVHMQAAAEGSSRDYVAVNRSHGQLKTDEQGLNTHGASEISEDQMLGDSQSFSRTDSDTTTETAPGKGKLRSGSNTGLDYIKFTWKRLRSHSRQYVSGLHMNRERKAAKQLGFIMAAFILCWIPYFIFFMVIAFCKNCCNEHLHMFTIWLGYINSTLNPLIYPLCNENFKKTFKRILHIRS
Chain of Serotoninergic 5-HT2A (P28223 whole entry): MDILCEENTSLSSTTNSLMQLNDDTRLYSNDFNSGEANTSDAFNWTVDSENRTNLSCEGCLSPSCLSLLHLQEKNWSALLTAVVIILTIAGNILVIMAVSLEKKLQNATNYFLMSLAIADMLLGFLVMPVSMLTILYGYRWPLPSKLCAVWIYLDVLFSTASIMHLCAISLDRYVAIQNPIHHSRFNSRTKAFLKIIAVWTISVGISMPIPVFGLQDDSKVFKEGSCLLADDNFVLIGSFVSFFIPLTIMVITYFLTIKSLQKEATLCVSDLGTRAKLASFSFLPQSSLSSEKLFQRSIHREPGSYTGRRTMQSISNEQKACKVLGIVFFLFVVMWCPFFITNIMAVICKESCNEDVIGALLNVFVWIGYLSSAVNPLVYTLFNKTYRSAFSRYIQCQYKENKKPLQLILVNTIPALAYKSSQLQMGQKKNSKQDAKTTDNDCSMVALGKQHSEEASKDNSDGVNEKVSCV
Chain of Histaminergic H2 (P25021 whole entry): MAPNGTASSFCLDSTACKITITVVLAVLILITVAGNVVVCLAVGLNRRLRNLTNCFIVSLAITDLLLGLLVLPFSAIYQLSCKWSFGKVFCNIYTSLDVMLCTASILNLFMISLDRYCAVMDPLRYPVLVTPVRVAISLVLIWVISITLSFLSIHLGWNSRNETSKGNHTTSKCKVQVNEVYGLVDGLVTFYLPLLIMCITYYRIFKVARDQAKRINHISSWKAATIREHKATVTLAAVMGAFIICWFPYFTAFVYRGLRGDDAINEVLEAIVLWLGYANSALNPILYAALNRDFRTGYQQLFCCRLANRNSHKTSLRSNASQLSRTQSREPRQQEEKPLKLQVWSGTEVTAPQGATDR
Chain of Histaminergic H3 (Q9Y5N1 whole entry): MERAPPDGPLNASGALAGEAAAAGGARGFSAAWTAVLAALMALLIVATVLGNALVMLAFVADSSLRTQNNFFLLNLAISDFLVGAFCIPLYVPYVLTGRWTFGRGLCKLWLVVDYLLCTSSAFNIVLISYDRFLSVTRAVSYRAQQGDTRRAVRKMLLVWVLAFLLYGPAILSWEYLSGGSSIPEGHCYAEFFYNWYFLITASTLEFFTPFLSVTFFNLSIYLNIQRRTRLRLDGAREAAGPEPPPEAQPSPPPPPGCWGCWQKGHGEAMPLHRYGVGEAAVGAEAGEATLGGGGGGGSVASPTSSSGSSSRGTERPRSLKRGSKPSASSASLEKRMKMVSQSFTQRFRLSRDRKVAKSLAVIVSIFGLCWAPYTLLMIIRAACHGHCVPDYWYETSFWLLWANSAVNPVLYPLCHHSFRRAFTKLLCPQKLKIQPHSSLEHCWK
Chain of Serotoninergic 5-HT7 (P34969 whole entry): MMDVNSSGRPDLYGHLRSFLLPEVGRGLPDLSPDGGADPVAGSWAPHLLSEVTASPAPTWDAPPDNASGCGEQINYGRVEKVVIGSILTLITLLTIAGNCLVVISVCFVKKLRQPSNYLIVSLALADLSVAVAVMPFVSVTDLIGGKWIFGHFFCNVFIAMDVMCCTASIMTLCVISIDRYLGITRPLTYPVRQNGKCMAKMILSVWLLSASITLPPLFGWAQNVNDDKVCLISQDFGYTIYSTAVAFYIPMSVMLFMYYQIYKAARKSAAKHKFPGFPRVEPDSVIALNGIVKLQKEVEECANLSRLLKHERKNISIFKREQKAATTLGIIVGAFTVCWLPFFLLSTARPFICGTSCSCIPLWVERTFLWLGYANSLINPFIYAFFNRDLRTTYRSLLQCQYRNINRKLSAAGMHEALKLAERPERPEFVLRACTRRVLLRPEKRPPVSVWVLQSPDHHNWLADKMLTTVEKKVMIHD

Structure (SMILES) | grade of the activity profile (poor / satisfactory / good) [1] | radio-labelled ligand displacement, Histaminergic H3 (Histaminergic H3) | radio-labelled ligand displacement, Dopaminergic D4.2 (Dopaminergic D4.2) [%] | radio-labelled ligand displacement, Dopaminergic D2L (Dopaminergic D2L) [%] | radio-labelled ligand displacement, Serotoninergic 5-HT6 (Serotoninergic 5-HT6) [%] | radio-labelled ligand displacement, Serotoninergic 5-HT1A (Serotoninergic 5-HT1A) [%] | radio-labelled ligand displacement, Dopaminergic D1 (Dopaminergic D1) [%] | radio-labelled ligand displacement, Adrenergic α1A (Adrenergic α1A) [%] | radio-labelled ligand displacement, Adrenergic α1B (Adrenergic α1B) [%] | radio-labelled ligand displacement, Histaminergic H2 (Histaminergic H2) [%] | radio-labelled ligand displacement, Serotoninergic 5-HT1B (Serotoninergic 5-HT1B) [%] | radio-labelled ligand displacement, Serotoninergic 5-HT2C (Serotoninergic 5-HT2C) [%] | radio-labelled ligand displacement, Adrenergic α2A (Adrenergic α2A) [%] | radio-labelled ligand displacement, Serotoninergic 5-HT2B (Serotoninergic 5-HT2B) [%] | radio-labelled ligand displacement, Adrenergic α1D (Adrenergic α1D) [%] | radio-labelled ligand displacement, Serotoninergic 5-HT7 (Serotoninergic 5-HT7) [%] | radio-labelled ligand displacement, Serotoninergic 5-HT2A (Serotoninergic 5-HT2A) [%] | radio-labelled ligand displacement, Dopaminergic D3 (Dopaminergic D3) [%] | radio-labelled ligand displacement, Histaminergic H1 (Histaminergic H1) [%] | radio-labelled ligand displacement, Dopaminergic D2S (Dopaminergic D2S) [%] | other results
Cc1csc2c1c1c(n2CCCc2ccccc2)CCN(C)C1 [3.12(1)•HCl] | good | 11 | 73 | 82 | 101 | 43 | 57 | 98 | 99 | 99 | 54 | 97 | 101 | 91 | 92 | 98 | 99 | 75 | 98 | 89 | 
Cc1ccc(CCCn2c3c(c4c(Cl)csc42)CN(C)CC3)cc1 [3.12(5)•HCl, 5-methyl-8-[(p-tolyl)propyl]-3-chloro-4,5,6,7-tetrahydro-5H-thieno[3′,2′:4,5]pyrrolo[3,2-c]pyridine] | good | −3 | 33 | 35 | 99 | 18 | 47 | 79 | 89 | 57 | 30 | 94 | 91 | 63 | 86 | 96 | 97 | 23 | 89 | 29 | 
CN1CCc2c(c3cc(Cl)sc3n2CCCc2cccc(F)c2)C1 [3.12(6)•HCl, 5-methyl-8-[(3-fluorophenyl)propyl]-2-chloro-4,5,6,7-tetrahydro-5H-thieno[3′,2′:4,5]pyrrolo[3,2-c]pyridine] | good | −1 | 68 | 81 | 84 | 50 | 63 | 84 | 96 | 91 | 43 | 98 | 91 | 91 | 83 | 95 | 97 | 69 | 97 | 77 | 
O=C(CCCN1CCC(O)(c2ccc(Cl)cc2)CC1)c1ccc(F)cc1 [Haloperidol, reference compound] |  |  |  |  |  |  |  |  |  |  |  |  |  |  |  |  |  |  |  |  | Antipsychotic activity: disturbance of prepulse inhibition of startle caused by Apomorphine (Mice of SHK line): prevented disturbance of prepulse inhibition of startle caused by Apomorphine
